According to patent publication US20150272931A1, “New Treatment” (priority 2012, published 2015):

Tested on: sea lice (L. salmonis)
Test: In-feed treatment of sea lice infested salmon: efficacy
Type: in vivo, Lepeophtheirus salmonis on Atlantic salmon
Conditions: for Reduction of total sea lice: adult sea lice, lice examined ten days after end of treatment
Text: In-feed treatment of sea lice infested salmon with 5 different neonicotinoids (a) Method: Atlantic salmon (estimated mean weight 50-100 g) were batch weighed and allocated to a single 2 m diameter challenge tank. Fish were challenged with sea lice (L. salmonis) copepodids. Within one week of the successful lice challenge, fish were randomly allocated from the 2 m challenge tank to 1 m diameter treatment tanks so that each tank contained thirty fish.
Fish were maintained until lice developed to adult stages. This was monitored by periodic examination of fish from the control tank. There were five test compounds acetamiprid (A), clothianidin (B), imidacloprid (C), nitenpyram (D) plus a control (E), each compound was tested at three doses. Experimental diets were prepared by top dressing feed pellets with the powder formulation and sealing with fish oil. Once lice had developed to adult stages, fish in all tanks received an in-feed treatment according to the relevant group for a period of seven days. Uneaten feed was collected daily to estimate the mean dose achieved in each group. Fish were examined for lice ten days following the end of the treatment period.
Following the 7day treatment period, the mean sea lice count in the control group was 7±3 adult sea lice meaning the total of adult males, adult non-ovigerous females and adult ovigerous females.

[1] = dose 1 mg/kg/day in feed for 7 days
[2] = dose 5 mg/kg/day in feed for 7 days
[3] = dose 10 mg/kg/day in feed for 7 days

SMILES | Reduction of total sea lice [1] [%] | Reduction of total sea lice [2] [%] | Reduction of total sea lice [3] [%] | sea lice reduction efficacy (at all three selected concentrations (10, 5, 1 mg/kg/day)) [%] | sea lice elimination (in-feed treatment, summary statement)
C/C(=N\C#N)N(C)Cc1ccc(Cl)nc1 [Acetamiprid, acetamiprid] | 53 | 64 | 85 | – | –
O=[N+]([O-])NC1=NCCN1Cc1ccc(Cl)nc1 [Imidacloprid, imidacloprid] | 91 | 94 | 81 | – | –
CN/C(=N\[N+](=O)[O-])NCc1cnc(Cl)s1 [Clothianidin, (E)-1-(2-Chlor-1,3-thiazol-5-ylmethyl)-3-methyl-2-nitroguanidin] | 90 | 98 | 99 | ≥ 90 | full sea lice elimination
CCN(Cc1ccc(Cl)nc1)/C(=C/[N+](=O)[O-])NC [Nitenpyram, nitenpyram] | 48 | 89 | 89 | – | –
